The test system of data set [1] is recombinant NL4-3 virus (nef section replaced with Renilla luciferase gene) in MT-2 cells. As to the kind of experiment: HIV cell culture assay (antiviral activity, luciferase readout). The data set is classed as cell-based. The settings on record: serial dilutions of compound. The method in brief: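 EC50 was derived by median-effect curve fitting of luciferase activity. The signal comes from MT-2 cells infected for 4–5 days with 293T-produced NL4-3 reporter virus, nef partly replaced by Renilla luciferase, in the presence of serially diluted compound.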

The nature of data set [2]: Compound cytotoxicity, XTT-based colorimetric assay. The data set is classed as cell-based. As to conditions: human, uninfected MT2 cells, day 4, XTT. The method in brief: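 Run under the antiviral-assay protocol but without virus. Viability was read on day 4 and CC50 values were derived from the readout.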
(Tetrazolium dyes change colour on reduction, which living cells bring about.)

The mark [3] stands for this setting: Renilla, NL43, MT-2 cells infected for 4-5 days with recombinant NL4-3 Renilla luciferase virus.

In the case of `Cn1nc(NS(C)(=O)=O)c2c(Cl)ccc(-n3c([C@H](Cc4cc(F)cc(F)c4)NC(=O)Cn4nc(C(F)F)c5c4C(F)(F)[C@@H]4C[C@H]54)nc4cc(-c5ccncc5)ccc4c3=O)c21` (atropisomer, axis not shown; (aR)) [Example 118, N-((S)-1-(3-(4-chloro-1-methyl-3-(methylsulfonamido)-1H-indazol-7-yl)-4-oxo-7-(pyridin-4-yl)-3,4-dihydroquinazolin-2-yl)-2-(3,5-difluorophenyl)ethyl)-2-((3bS,4aR)-3-(difluoromethyl)-5,5-difluoro-3b,4,4a,5-tetrahydro-1H-cyclopropa[3,4]cyclopenta[1,2-c]pyrazol-1-yl)acetamide], in data set [1] (setting [3]), the EC50 – broadly, the midpoint of the concentration-response curve – is 0.16 nM. Moreover, the CC50 (commonly the concentration that lowers cell viability or growth by half) at 4 day in data set [2] was over 500 nM.
The matching figures for `CC(C)S(=O)(=O)c1cccc(-c2ccc3c(=O)n(-c4ccc(Cl)c5c(NS(C)(=O)=O)nn(C)c45)c([C@H](Cc4cc(F)cc(F)c4)NC(=O)Cn4nc(C(F)F)c5c4C(F)(F)[C@@H]4C[C@H]54)nc3c2)c1` (atropisomer, axis not shown; (aR)) [Example 123, N-((S)-1-(3-(4-chloro-1-methyl-3-(methylsulfonamido)-1H-indazol-7-yl)-7-(3-(isopropylsulfonyl)phenyl)-4-oxo-3,4-dihydroquinazolin-2-yl)-2-(3,5-difluorophenyl)ethyl)-2-((3bS,4aR)-3-(difluoromethyl)-5,5-difluoro-3b,4,4a,5-tetrahydro-1H-cyclopropa[3,4]cyclopenta[1,2-c]pyrazol-1-yl)acetamide]: 0.15 nM and over 500 nM.
Taken in the same sequence, the figures for `Cc1cccc(C)c1-c1ccc2c(=O)n(-c3ccc(S(=O)(=O)N4CCOCC4)cc3)c([C@H](Cc3cc(F)cc(F)c3)NC(=O)Cn3nc(C(F)F)c4c3C(F)(F)[C@@H]3C[C@H]43)nc2c1` [Example 77, 2-((3bS,4aR)-3-(difluoromethyl)-5,5-difluoro-3b,4,4a,5-tetrahydro-1H-cyclopropa[3,4]cyclopenta[1,2-c]pyrazol-1-yl)-N-((S)-2-(3,5-difluorophenyl)-1-(7-(2,6-dimethylphenyl)-3-(4-(morpholinosulfonyl)phenyl)-4-oxo-3,4-dihydroquinazolin-2-yl)ethyl)acetamide] were 4.2 nM and over 1000 nM.
Taken in the same sequence, the figures for `COc1ccccc1-c1ccc2c(=O)n(-c3ccc(S(=O)(=O)N4CCOCC4)cc3)c([C@H](Cc3cc(F)cc(F)c3)NC(=O)Cn3ccc(C4CC4)n3)nc2c1` [Example 142, (S)-2-(3-cyclopropyl-1H-pyrazol-1-yl)-N-(2-(3,5-difluorophenyl)-1-(7-(2-methoxyphenyl)-3-(4-(morpholinosulfonyl)phenyl)-4-oxo-3,4-dihydroquinazolin-2-yl)ethyl)acetamide] were 66 nM and over 1000 nM.
As to `CC(C(=O)N[C@@H](Cc1cc(F)cc(F)c1)c1nc2cc(-c3ccccc3F)ccc2c(=O)n1-c1ccc(Cl)c2c(NS(=O)(=O)C3CC3)nn(CC(F)F)c12)n1ccc(C2CC2)n1` (single isomer, unassigned) [Example 133], in data set [1] (MT-2 cells infected for 4-5 days with recombinant NL4-3 Renilla luciferase virus), the EC50 was 1.6 nM. This compound also gave a CC50 at 4 day in data set [2] of over 500 nM.
In the case of `O=C(Cn1ccc(C2CC2)n1)N[C@@H](Cc1cc(F)cc(F)c1)c1nc2cc(-c3ccc(-c4ccccc4)cc3)ccc2c(=O)n1-c1ccc(S(=O)(=O)N2CCOCC2)cc1` [Example 148, (S)-N-(1-(7-([1,1′-biphenyl]-4-yl)-3-(4-(morpholinosulfonyl)phenyl)-4-oxo-3,4-dihydroquinazolin-2-yl)-2-(3,5-difluorophenyl)ethyl)-2-(3-cyclopropyl-1H-pyrazol-1-yl)acetamide], in data set [1] (setting [3]), the EC50 amounted to 71 nM. The CC50 at 4 day in data set [2] was over 500 nM.
Taken in the same sequence, the figures for `Cn1nc(NS(C)(=O)=O)c2c(Cl)ccc(-n3c([C@H](Cc4cc(F)cc(F)c4)NC(=O)Cn4nc(C(F)F)c5c4C(F)(F)[C@@H]4C[C@H]54)nc4cc(-c5ccc(F)c(F)c5F)ccc4c3=O)c21` [Example 168, N-((S)-1-(3-(4-chloro-1-methyl-3-(methylsulfonamido)-1H-indazol-7-yl)-4-oxo-7-(2,3,4-trifluorophenyl)-3,4-dihydroquinazolin-2-yl)-2-(3,5-difluorophenyl)ethyl)-2-((3bS,4aR)-3-(difluoromethyl)-5,5-difluoro-3b,4,4a,5-tetrahydro-1H-cyclopropa[3,4]cyclopenta[1,2-c]pyrazol-1-yl)acetamide] were 0.7 nM and over 500 nM.
The matching figures for `CC(C)c1ccc(-c2ccc3c(=O)n(-c4ccc(Cl)c5c(NS(C)(=O)=O)nn(C)c45)c([C@H](Cc4cc(F)cc(F)c4)NC(=O)Cn4nc(C(F)F)c5c4C(F)(F)[C@@H]4C[C@H]54)nc3c2)cc1` (atropisomer, axis not shown; (aR)) [Example 59, N-((S)-1-(3-(4-chloro-1-methyl-3-(methylsulfonamido)-1H-indazol-7-yl)-7-(4-isopropylphenyl)-4-oxo-3,4-dihydroquinazolin-2-yl)-2-(3,5-difluorophenyl)ethyl)-2-((3bS,4aR)-3-(difluoromethyl)-5,5-difluoro-3b,4,4a,5-tetrahydro-1H-cyclopropa[3,4]cyclopenta[1,2-c]pyrazol-1-yl)acetamide]: 5.3 nM and over 1000 nM.
Taken in the same sequence, the figures for `Cc1cccc(-c2ccc3c(=O)n(-c4ccc(Cl)c5c(NS(=O)(=O)C6CC6)nn(CC(F)F)c45)c([C@H](Cc4cc(F)cc(F)c4)NC(=O)Cn4nc(C(F)F)c5c4C(F)(F)[C@@H]4C[C@H]54)nc3c2)n1` [Example 158, N-((S)-1-(3-(4-chloro-3-(cyclopropanesulfonamido)-1-(2,2-difluoroethyl)-1H-indazol-7-yl)-7-(6-methylpyridin-2-yl)-4-oxo-3,4-dihydroquinazolin-2-yl)-2-(3,5-difluorophenyl)ethyl)-2-((3bS,4aR)-3-(difluoromethyl)-5,5-difluoro-3b,4,4a,5-tetrahydro-1H-cyclopropa[3,4]cyclopenta[1,2-c]pyrazol-1-yl)acetamide] were 0.14 nM and over 500 nM.
Consider `O=C(Cn1nc(C(F)F)cc1C(F)F)N[C@@H](Cc1cc(F)cc(F)c1)c1nc2cc(-c3ccccc3F)ccc2c(=O)n1-c1ccc(Cl)c2c(NS(=O)(=O)C3CC3)nn(CC(F)F)c12` (atropisomer, axis not shown) [Example 136, (S)-2-(3,5-bis(difluoromethyl)-1H-pyrazol-1-yl)-N-(1-(3-(4-chloro-3-(cyclopropanesulfonamido)-1-(2,2-difluoroethyl)-1H-indazol-7-yl)-7-(2-fluorophenyl)-4-oxo-3,4-dihydroquinazolin-2-yl)-2-(3,5-difluorophenyl)ethyl)acetamide], for which, in data set [1] (setting [3]), the EC50 came out at 9.5 nM. In data set [2], this compound registered a CC50 at 4 day of over 1000 nM.
The matching figures for `Cn1nc(NS(C)(=O)=O)c2c(Cl)ccc(-n3c([C@H](Cc4cc(F)cc(F)c4)NC(=O)Cn4nc(C(F)F)c5c4C(F)(F)[C@@H]4C[C@H]54)nc4cc(-c5ccc(F)cc5CO)ccc4c3=O)c21` (atropisomer, axis not shown; (aR)) [Example 105, N-((S)-1-(3-(4-chloro-1-methyl-3-(methylsulfonamido)-1H-indazol-7-yl)-7-(4-fluoro-2-(hydroxymethyl)phenyl)-4-oxo-3,4-dihydroquinazolin-2-yl)-2-(3,5-difluorophenyl)ethyl)-2-((3bS,4aR)-3-(difluoromethyl)-5,5-difluoro-3b,4,4a,5-tetrahydro-1H-cyclopropa[3,4]cyclopenta[1,2-c]pyrazol-1-yl)acetamide]: 0.34 nM and over 1000 nM.
Turning to `Cn1nc(NS(C)(=O)=O)c2c(Cl)ccc(-n3c([C@H](Cc4cc(F)cc(F)c4)NC(=O)Cn4nc(C(F)F)c5c4C(F)(F)[C@@H]4C[C@H]54)nc4cc(-c5cnccc5F)ccc4c3=O)c21` (atropisomer, axis not shown; (aR)) [Example 96, N-((S)-1-(3-(4-chloro-1-methyl-3-(methylsulfonamido)-1H-indazol-7-yl)-7-(4-fluoropyridin-3-yl)-4-oxo-3,4-dihydroquinazolin-2-yl)-2-(3,5-difluorophenyl)ethyl)-2-((3bS,4aR)-3-(difluoromethyl)-5,5-difluoro-3b,4,4a,5-tetrahydro-1H-cyclopropa[3,4]cyclopenta[1,2-c]pyrazol-1-yl)acetamide], the half-maximal effective concentration (EC50) in data set [1] (setting [3]) amounted to 0.076 nM. Further, the CC50 at 4 day in data set [2] is over 1000 nM.
The matching figures for `COc1cccc(OC)c1-c1ccc2c(=O)n(-c3ccc(Cl)c4c(NS(C)(=O)=O)nn(C)c34)c([C@H](Cc3cc(F)cc(F)c3)NC(=O)Cn3nc(C(F)F)c4c3C(F)(F)[C@@H]3C[C@H]43)nc2c1` (atropisomer, axis not shown; (aR)) [Example 86, N-((S)-1-(3-(4-chloro-1-methyl-3-(methylsulfonamido)-1H-indazol-7-yl)-7-(2,6-dimethoxyphenyl)-4-oxo-3,4-dihydroquinazolin-2-yl)-2-(3,5-difluorophenyl)ethyl)-2-((3bS,4aR)-3-(difluoromethyl)-5,5-difluoro-3b,4,4a,5-tetrahydro-1H-cyclopropa[3,4]cyclopenta[1,2-c]pyrazol-1-yl)acetamide]: 0.5 nM and over 1000 nM.
Taken in the same sequence, the figures for `CC(C)n1ccc(CC(=O)N[C@@H](Cc2cc(F)cc(F)c2)c2nc3cc(-c4ccccc4F)ccc3c(=O)n2-c2ccc(Cl)c3c(NS(=O)(=O)C4CC4)nn(CC(F)F)c23)n1` [Example 140, (S)-N-(1-(3-(4-chloro-3-(cyclopropanesulfonamido)-1-(2,2-difluoroethyl)-1H-indazol-7-yl)-7-(2-fluorophenyl)-4-oxo-3,4-dihydroquinazolin-2-yl)-2-(3,5-difluorophenyl)ethyl)-2-(1-isopropyl-1H-pyrazol-3-yl)acetamide] were 0.35 nM and over 500 nM.

The values are drawn from patent publication US11505543B2, “4-oxo-3,4-dihydroquinazoline compounds as inhibitors of human immunodeficiency virus replication” (VIIV HEALTHCARE UK (NO.5) LIMITED, priority 2018, dated 2022).
